{"source": "ChEMBL document CHEMBL3739422", "about": "“Hydroxytyrosol-Derived Compounds: A Basis for the Creation of New Pharmacological Agents for Cancer Prevention and Therapy” (J Med Chem, 2015)", "key": {"[1]": {"test_system": "HeLa", "test": "Antioxidant activity in human HeLa cells assessed as reduction in iron-reactive oxidative stress preincubated for 4 hrs prior to FeSO4 addition measured after 1 hr by TBARS assay", "format": "functional", "set-up": "scale not given: the % may be the effect or the level left"}, "[2]": {"test_system": "Rattus norvegicus", "test": "Inhibition of collagen-induced platelet aggregation in po dosed Wistar rat administered for 7 days measured after 1 hr post last dose by aggregometric analysis", "format": "functional", "settings": "read-out: ID50 (the source's name)"}, "[3]": {"test_system": "Rattus norvegicus", "test": "Inhibition of A23187-induced TXA2 synthesis in Wistar rat at 1 to 100 mg/kg, po qd administered for 7 days measured after 1 hr post last dose by enzyme immunoassay", "format": "functional"}, "[4]": {"test_system": "Platelet", "test": "Inhibition of collagen-induced platelet aggregation in human whole blood preincubated for 10 mins prior to collagen addition measured after 10 mins by aggregometric analysis", "format": "functional, tissue-based"}, "[5]": {"test": "Cytotoxicity against human Caco2/TC7 cells assessed as growth inhibition at 5 uM after 24 hrs by WST-1 assay", "format": "functional", "settings": "Caco-2, 24 h, read-out: GI"}, "[6]": {"test_system": "Rattus norvegicus", "test": "Induction of NO production in Wistar rat at 1 to 100 mg/kg, po qd administered for 7 days measured after 1 hr post last dose by enzyme immuno assay", "format": "functional"}, "[7]": {"test": "Cytotoxicity against human Caco2/TC7 cells assessed as growth inhibition after 24 hrs by WST-1 assay", "format": "functional, cell-based", "settings": "Caco-2, 24 h"}, "[8]": {"test_system": "A549", "test": "Cytotoxicity against human A549 cells assessed as cell viability after 48 hrs by MTT assay", "format": "functional, cell-based", "settings": "A549, 48 h"}, "[9]": {"test_system": "MRC5", "test": "Cytotoxicity against human MRC5 cells assessed as cell viability after 48 hrs by MTT assay", "format": "cell-based", "settings": "MRC5, 48 h"}, "[10]": {"test": "Selectivity ratio of IC50 for human MRC5 cells to IC50 for human A549 cells", "format": "ADME, cell-based", "settings": "MRC5 cells versus A549 cells, read-out: Ratio IC50"}, "[11]": {"test_system": "THP-1", "test": "Inhibition of LPS-induced TNFalpha production in human THP1 cells at 0.5 uM after 3 hrs by microplate reader analysis", "format": "functional", "settings": "THP-1, 3 h"}, "[12]": {"test_system": "THP-1", "test": "Inhibition of LPS-induced TNFalpha production in human THP1 cells at 100 uM after 3 hrs by microplate reader analysis", "format": "functional", "settings": "THP-1, 3 h"}, "[13]": {"test_system": "THP-1", "test": "Inhibition of LPS-induced TNFalpha production in human THP1 cells at 10 uM after 3 hrs by microplate reader analysis", "format": "functional", "settings": "THP-1, 3 h"}, "[14]": {"test_system": "Rattus norvegicus", "test": "Inhibition of plasma lipid peroxide in Wistar rat at 20 mg/kg, po qd administered for 7 days measured after 1 hr post last dose by spectrophotometric analysis", "format": "functional"}, "[15]": {"test_system": "Rattus norvegicus", "test": "Inhibition of collagen-induced platelet aggregation in Wistar rat at 20 mg/kg, po qd administered for 7 days measured after 1 hr post last dose by aggregometric analysis", "format": "functional"}, "[16]": {"test_system": "Rattus norvegicus", "test": "Inhibition of A23187-induced TXA2 synthesis in Wistar rat at 20 mg/kg, po qd administered for 7 days measured after 1 hr post last dose by enzyme immuno assay", "format": "functional"}, "[17]": {"test_system": "Rattus norvegicus", "test": "Induction of NO production in Wistar rat at 1 to 10 mg/kg, po qd administered for 7 days measured after 1 hr post last dose by enzyme immuno assay", "format": "functional"}, "[18]": {"test_system": "Platelet", "test": "Inhibition of ADP-induced platelet aggregation in human platelet rich plasma preincubated for 10 mins", "format": "functional, cell-free"}, "[19]": {"test_system": "Platelet", "test": "Inhibition of collagen-induced platelet aggregation in human platelet rich plasma preincubated for 10 mins", "format": "functional, cell-free"}}}
{"smiles": "CCCCCCCC/C=C\\CCCCCCCC(=O)OCCc1ccc(O)c(O)c1", "values": [{"measurement": "Activity", "setting": "[1]", "result": 38, "unit": "%"}]}
{"smiles": "CC(=O)OCCc1ccc(O)c(O)c1", "values": [{"measurement": "ED50", "setting": "[2]", "result": 16.1, "unit": "mg/kg/day"}, {"measurement": "inhibition (INH)", "setting": "[3]", "result": 37, "unit": "%"}, {"measurement": "IC50", "setting": "[4]", "result": 10, "unit": "µM"}, {"measurement": "inhibition of growth at 5 µM", "setting": "[5]", "result": 20, "unit": "%"}, {"measurement": "inhibition (INH)", "setting": "[6]", "result": 66, "unit": "%"}, {"measurement": "Activity", "setting": "[1]", "result": 36, "unit": "%"}, {"measurement": "IC50", "setting": "[7]", "result": 32, "unit": "µM"}]}
{"smiles": "CCCCCCCCCCCCOCCc1ccc(O)c(O)c1", "values": [{"measurement": "IC50", "setting": "[8]", "result": 20, "unit": "µM"}, {"measurement": "IC50", "setting": "[9]", "result": 49, "unit": "µM"}, {"measurement": "selectivity ratio", "setting": "[10]", "result": 2.46}]}
{"smiles": "Oc1cc2c(cc1O)C(c1ccccc1)OCC2", "note": "(stereo not given)", "values": [{"measurement": "inhibition at 0.5 µM", "setting": "[11]", "result": 30, "unit": "%"}, {"measurement": "inhibition at 100 µM", "setting": "[12]", "result": 80, "unit": "%"}, {"measurement": "inhibition at 10 µM", "setting": "[13]", "result": 60, "unit": "%"}]}
{"smiles": "CCCCCCOCCc1ccc(O)c(O)c1", "values": [{"measurement": "inhibition in vivo at 20 mg/kg", "setting": "[14]", "result": 84.7, "unit": "%"}, {"measurement": "IC50", "setting": "[4]", "result": 0.1, "unit": "µM"}, {"measurement": "inhibition in vivo at 20 mg/kg", "setting": "[15]", "result": 58.7, "unit": "%"}, {"measurement": "inhibition in vivo at 20 mg/kg", "setting": "[16]", "result": 58.7, "unit": "%"}]}
{"smiles": "CC(=O)Oc1ccccc1C(=O)O", "note": "[ASPIRIN]", "values": [{"measurement": "ED50", "setting": "[2]", "result": 2.42, "unit": "mg/kg/day"}, {"measurement": "inhibition (INH)", "setting": "[17]", "result": 64, "unit": "%"}]}
{"smiles": "OCCc1ccc(O)c(O)c1", "note": "[HYDROXYTYROSOL]", "values": [{"measurement": "ED50", "setting": "[2]", "result": 48.2, "unit": "mg/kg/day"}, {"measurement": "inhibition (INH)", "setting": "[3]", "result": 30, "unit": "%"}, {"measurement": "IC50", "setting": "[18]", "result": 27, "unit": "µM"}, {"measurement": "IC50", "setting": "[19]", "result": 67, "unit": "µM"}, {"measurement": "inhibition (INH)", "setting": "[6]", "result": 34.2, "unit": "%"}]}
